{"source": "patent US20230340498A1", "about": "“COMPOSITIONS AND METHODS FOR INDUCIBLE ALTERNATIVE SPLICING REGULATION OF GENE EXPRESSION” (The Children's Hospital of Philadelphia, priority 2020, published 2023)", "key": {"[1]": {"tested_on": "SMN2-on minigene", "assay": "SMN2-on cassette Firefly luciferase reporter assay in transfected HEK293 cells", "type": "cell-based, Human", "experimental": "Cell culture, transfection, and LMI070/RG7800 treatment. Human embryonic kidney (HEK293) cells (obtained from CHOP Research Vector Core stock) were maintained in DMEM media containing 10% Fetal Bovine Serum (FBS), 1% L-Glutamine and 1% penicillin/streptomycin at 37° C. with 5% CO2. Cells were cultured in 24 well plates and transfected at 80-90% confluence using Lipofectamine 2000 transfection reagent, according to the manufacturer’s protocol. For all experiments, 4 hours after plasmid transfection, cells were treated with LMI070 (MedChemExpress, HY-19620, suspended in DMSO) or RG7800 (MedChemExpress, HY-101792A, suspended in H2O) at the indicated concentrations. Cells were tested for mycoplasma by Research Vector Core. None of the cells used in the study were listed in ICLAC database of commonly misidentified cell lines.\nIn vitro luciferase assays. HEK293 cells were cultured in DMEM (10% FBS (v/v), 1% Pen/ Strep (v/v), and 1% L-glutamine (v/v) in a 24-well plate. At 70%-80% confluence, cells were co-transfected with the Xon.Firefly luciferase cassettes (0.3 µg/well) and a SV40p-Renilla luciferase cassette as transfection control (0.02 µg/well). Four hours after transfections cells were treated either with LMI070 or RG7800 at indicated concentrations. At 24 h after transfection, cells were rinsed with ice-cold PBS and Renilla and Firefly luciferase activities were assessed using the Dual-Luciferase Reporter Assay System (Promega) according to the manufacturer’s instructions. Luminescent readouts were obtained with a Monolight 3010 luminometer (Pharmigen). Relative light units (RLUs) were calculated as the quotient of […] RLUs and results expressed relative to mock treated control cells.\nFor this, SMN2-on cassettes were generated to provide drug-induced reporter gene expression. HEK293 cells were transfected with the SMN2-on expression cassettes and luciferase activity evaluated in response to varying doses of LMI070 or RG7800. […]"}, "[2]": {"tested_on": "AAV9.X^on.eGFP", "assay": "In vivo induction of AAV9.X^on.eGFP in mice by oral LMI070", "experimental": "Animals and histology. Animal protocols were approved by The Children’s Hospital of Philadelphia Institutional Animal Care and Use Committee. Five to six-week-old male C57Bl6/j mice were obtained from Jackson Laboratories (Bar Harbor, ME, USA). AAV vectors (AAV9. X^on.eGFP or AAVPHBeB.X^on.eGFP; generated at the CHOP Research Vector Core) were administrated by retroorbital injection at 7-8 weeks of age with a total of 3E11 vg in 150 µL infused. After 4 weeks, a single dose of LMI070 (5 or 50 mg/kg, MedChemExpress HY-19620) or vehicle solution was administrated by oral gavage. After 18-24 h, mice used for biochemical or molecular studies were anesthetized and perfused with 0.9% cold saline mixed with 2-ml RNAlater (Ambion) solution. Brains and liver samples were collected, flash frozen in liquid nitrogen, and stored at -80 C until use. For immunohistochemistry studies, mice were perfused with 15 mL ice-cold 0.1 M PBS followed by 15 mL 4% paraformaldehyde. For brain sections, eGFP visualization was done by IHC using rabbit anti-GFP antibody (Invitrogen, 1:200) followed by Alexa488-conjugated goat anti-rabbit (Invitrogen, 1:500) and Alexa488-conjugated chicken anti-goat (Invitrogen, 1:500). Slices were mounted on Superfrost plus slides and coverslips mounted using fluoro-gel mounting media. Sections were analyzed using a DM6000B Leica microscope equipped with a L5 ET filter cube (ex:em of 470±20:525±15 nm and dichroic 495 nm), a 20X HC APO PLAN (N.A. 0.70) lens connected to a Sola Light Engine LED light source (Lumencor). Images were collected with a Hammatsu Orca flash4.0 monochrome camera controlled by Leica LAS X (v.3.0.3) software. Brain images represent a 7.98 µm thick z-stack deconvoluted by 3 iterations of the Blind algorithm.\nRNA extraction, RT-PCR, and Splicing assays. Total RNA was extracted using Trizol (Life Technologies) according to the manufacturer’s protocol, with the exception of 1 µL Glycoblue (Life Technologies) in addition to the aqueous phase on the isopropanol precipitation step and a single wash with cold 70% ethanol. To determine HTT expression levels after transfection, RNA samples were quantified by spectrophotometry and subsequently cDNAs generated from […] of total RNA with random hexamers (TaqMan RT reagents, Applied Biosystems). To determine human HTT expression levels in HEK293 cells, we used TaqMan probes for human HTT and glyceraldehyde 3-phosphate dehydrogenase (GAPDH) mRNAs obtained from Applied Biosystems. Relative HTT gene expression was determined using the ddCt method. To determine splicing of the SMN2-on and Xon switches, 2 µg of total RNA from HEK293 cells or tissue samples was treated with DNAseI Free kit (Thermofisher) followed by cDNA generation using the High capacity cDNA kit (Thermofisher). Splicing was determined by PCR using the Phusion High-Fidelity polymerase (Thermofisher) and PCR products separated on a 2.5% agarose gel pre-stained with EtBr and spliced-in and spliced-out band densitometry performed using with the ChemiDoc Imaging System (BioRad) and Image Lab analysis software. Splicing induction from mouse tissues was determined using two custom TaqMan assays designed to determine total or LMI070-spliced in mRNA transcripts. The percentage of induction was determined by dividing the average Ct novel exon and average Ct Total, relative to control animals injected with AAV virus plus vehicle.\nWestern Blots. HEK293 cells were rinsed and lysed with Passive Lysis Buffer (PBL, Promega), protein concentrations determined using the DC protein assay (Bio-Rad), and 10-20 µg of protein loaded on a 3%-8% NuPAGE Tris-Acetate Gel in tris-acetate buffer (Novex Life Technologies) or a 4-12% NuPAGE TrisBis NuPAGE gels in MES buffer (Novex Life Technologies) to determine HTT, SaCas9, or eGFP protein levels, respectively, with β-catenin as loading control. […]"}, "[3]": {"conditions": "spliced expression cassette relative to vehicle, LMI070 50 mg/kg"}}}
{"smiles": "CC1(C)CC(Oc2ccc(-c3ccc(-c4cn[nH]c4)cc3O)nn2)CC(C)(C)N1", "note": "[LMI070, 5-(1H-Pyrazol-4-yl)-2-(6-((2,2,6,6-tetramethylpiperidin-4-yl)oxy)pyridazin-3-yl)phenol]", "values": [{"measurement": "luciferase activity from the SMN2-on minigene", "setting": "[1]; HEK293 cells, varying doses", "result": "induced luciferase activity"}, {"measurement": "overall induction of luciferase, refined SMN2-on switch system", "setting": "[1]; indSMN2 cassette, relative to DMSO treated cells (FIG. 1E: LMI070 100 nM)", "result": "approximately 20 fold"}, {"measurement": "eGFP expression in sections from liver", "setting": "[2]; AAV9.X^on.eGFP 3E11 vg/mouse IV, single dose LMI070 5 or 50 mg/kg, 24 h later", "result": "notable eGFP expression"}, {"measurement": "induction in liver after repeat dosing", "setting": "[2]; LMI070 50 mg/kg oral, second dose after one week washout, histology, western blot, splicing assay", "result": "evident in liver after the first and the second dose"}, {"measurement": "induction in skeletal muscle and heart", "setting": "[2]; LMI070 50 mg/kg oral, histology and splicing assay", "result": "notable"}, {"measurement": "protein levels and novel exon splicing versus dose", "setting": "[2]; liver, LMI070 5 or 50 mg/kg", "result": "directly correlated to the LMI070 dose"}, {"measurement": "relative level of induction in heart", "setting": "[2]; [3]", "result": "~ 3000 fold"}, {"measurement": "relative level of induction in liver", "setting": "[2]; [3]", "result": "~1000", "unit": "fold"}]}
